Data on one molecule can be found in US10022382B2, “RNA polymerase I inhibitors and uses thereof” (Tel HaShomer Medical Research Infrastructure and Services …, priority 2013, dated 2018).

The subject of one data set is Mouse splenocytes. Description: XTT cell viability assay, PHA-stimulated splenocytes. In kind it is cell-based. The conditions noted are these: 72 hours. On the procedure: Cell viability was assessed by the 2,3 bis [2-Methoxy-4-nitro-5-sulfophenyl]-2H-tetrazolium-5-carboxanilide (XTT) assay (Biological Industries, Kibbutz Beit Hemeek, Israel), which measures the reduction of a tetrazolium component (XTT) into soluble formazan product by the mitochondria of viable cells. The intensity of the dye obtained is proportional to the number of metabolic active cells. On the day of measurement, cells were washed and XTT was added according to the manufacturer's instructions. Plates were incubated at 37° C. for 2-5 hours. The absorbance was read at 450 nm.
Mouse splenocytes were removed and spleenocytes were plated (250,000 cell/well) in DMEM+10% FCS+P/S+Q and […] Phytohaemaglutinin (PHA), in the presence of elevated concentrations (25-400 nM) of RAM-0 (Compound 1), RAM-1 (Compound 4), RAM-2 (Compound 2) or RAM-3 (Compound 3) for 72 hours. Cells cultured without PHA served as control. Control mice at zero are mice splenocytes with PHA stimulation.
Following incubation, cell viability was determined by XTT assay, as described above.

Data set [1] is described as follows: Toxicity (LD50, survival) in the EAE model, continuous administration. The conditions noted are these: C57BL/6J, mouse, in vivo, oral; EAE prevention model, continuous administration. In kind it is in vivo. On the procedure:
(§1) The animals were evaluated for signs of acute toxicity and survival during the entire administration period in the EAE model.
(§2) The therapeutic index (LD50/ED50), which is also referred to herein as Safety Margin (SM), was then determined based on the EAE model.

The next data set concerns C57BL/6J mice. The data set is described as above. In kind it is in vivo. Here is the method: as §1, §2
The nature of data set [2]: Bioavailability: serum level after oral gavage or IV. In kind it is in vivo, mice. The conditions noted are these: for time to maximal concentration: healthy C57B6J female mice. On the procedure: Bioavailability: Determination of the level of the tested compound in serum was done following oral gavage. Blood samples (0.5 mL) were collected and immediately centrifuged at 5,000 rpm for 10 minutes. The serum was separated and stored at −20° C. until fluoprometric analysis by Tecan SpectraFluor, based on the specific excitation/emission values of the tested compound was conducted. The pharmacokinetic parameters including serum maximum concentration (Cmax), the time needed to reach Cmax (Tmax), and half-life (T1/2), were calculated to evaluate oral bioavailability. The serum concentration after oral gavages was calculated according to a calibration curve for each compound in the serum. The Pharmacokinetic properties of compound 10 were quantified by the LCMS method described below. The concentration of Compound 10 was calculated with a calibration curve. The serum was prepared for analysis using protein precipitation. 15 μL of water were added to 15 μL of serum and a H2O: MeOH: CHCl3 (90:120:30) solution was added. The supernatant was subjected to LCMS analysis equipped with a PHENOMENEX® C-18 RP column.

The next data set concerns pre-rRNA. Description: Q-RT-PCR of pre-rRNA in splenocytes of treated EAE mice. In kind it is in vivo. The conditions noted are these: 12.5 mg/Kg, 17 days following immunization. On the procedure:
RNA Extraction: For in vivo experiments spleens from EAE mice were isolated at day 17 post immunization and splenocytes were re-stimulated for 72 h hours in the presence of 5.0 μg/ml MOG35-55. For in-vitro experiments spleens from intact mice were isolated and splenocytes were stimulated with for 72 h in the presence of PHA. RNA was extracted from splenocytes of both the in-vitro and in-vivo experiments by robotic ABI PRISM, Applied biosystem 6100 Nucleic Acid Prep Station. To avoid genomic DNA contamination samples were treated with DNase I (Roche). The quality and integrity of the total RNA preparation was confirmed using a NanoDrop 2000c Spectrophotometer (Thermo Scientific).
Quantitative RT-PCR of Pre-rRNA: Complementary DNA was obtained from the extracted RNA by the High capacity cDNA reverse transcription kit (Applied Biosystems, CA, USA) following manufacturer's instructions. To confirm the role of POL1 pathway suppression by POL1-Inhibitors, the expression level of pre-rRNA transcript, a key gene of the RNA polymerase I pathway, was evaluated by Q-RT-PCR (n=3 per group). All PCR reactions were performed on a Light Cycler 480 instrument (Roche Diagnostic). The pre-rRNA, specific primers used were Forward: […] (SEQ ID NO: 69) and Reverse: […] (SEQ ID NO: 70) with a quantification probe (Roche, Probe ID #1, cat. no. 04684974001). […]

Another data set relates to Pol I. In words: Cell-free Pol I transcription assay. In kind it is biochemical, human. The conditions noted are these: 200 nM. Here is the method: Cell-free Pol I transcription assay was performed according to Drygin et al. (2010). Briefly, a reaction mixture consisting of 8 units of HeLa scribe nuclear extract (Promega) in transcription buffer and MgCl2 (4 mM) was combined with POL1-Inhibitor (200 nM) and […] a-amanitin (Sigma) for 20 minutes at ambient temperature. Following, 10 ng DNA template (GENEWIZ, Inc.; http://www(dot)genewiz(dot)com(dot)cn) corresponding to the (−160/+350) region on human rDNA was added and the reaction was incubated for 5 minutes at ambient temperature. Transcription was initiated by adding rNTPs mix to a final concentration of 1 mM and the reaction was incubated for 1 hour at 30° C. Afterward, DNase I (Ambion kit) was added and the reaction was further incubated for 25 minutes at 37° C. DNase activity was terminated with adding an inactivation solution according the manufacturer's protocol. The samples were then subjected for RNA isolation (following the same procedure described in Example 3 hereinabove). Pellets of RNA were re-suspended in DEPC-treated double distilled water and subjected for reverse transcription by a High capacity kit (Applied Biosystems). The resultant transcripts were analyzed by qRT-PCR in a Light cycler 480 system using primer pairs (Sigma) and probe for real-time PCR. […]

Setting [3] is: EAE mice, 30 mg/kg every alternate day until disease onset.

With `Cc1cnc(CNC(=O)c2/c(=N/c3ccccc3)c3ccc(N4CCCN(C)CC4)nc3n3c2sc2ccccc23)cn1` [Compound 10, (E)-2-(4-methyl-1,4-diazepan-1-yl)-N-((5-methylpyrazin-2-yl)methyl)-5-(phenylimino)-5H-benzo[4,5]thiazolo[3,2-a][1,8]naphthyridine-6-carboxamide], the “suppression of splenocyte proliferation compared to Compound 1 (XTT)” value with Mouse splenocytes is given as “improved performance”. Further, in the data set with Mouse splenocytes (Splenocyte, mouse splenocytes, 25-400 nM), half-maximal inhibition (IC50) was put at 40 nM. In data set [1], the LD50 is 30 mg/kg. The same molecule returned a survival in the data set with C57BL/6J mice (C57BL/6J, mouse, in vivo, 28 days) of 100%. Further, in the data set on C57BL/6J mice (setting [3]), the behavioral changes result was “No behavioral changes”, the survival entry is on record as “No effect on survival” and the tolerability entry is “well tolerated”. The signs of toxicity entry with C57BL/6J mice (all treated groups, EAE model, alternate days) is recorded as “without apparent signs of toxicity”. In data set [2] (12.5 mg/kg, up to 168 h), the “bioavailability AUC(oral)/AUC(IV)” value came to 72%. In addition, the “time to maximal concentration” value in data set [2] (IV, 12.5 mg/kg) came to 0.5 h. Further, in data set [2] (mice serum, oral gavage), the “Cmax compared to Compound 1” value is reported as “higher”, the “Tmax compared to Compound 1” value is “lower” and the “clearance compared to Compound 1” value is given as “faster”. The absorption result in data set [2] (oral and IV, 12.5 mg/kg) is reported as “rapidly absorbed”. Moreover, in data set [2] (oral, 12.5 mg/kg), the “time to maximal concentration” value worked out at 2 h. In addition, in the data set on pre-rRNA, the “decrease in pre-rRNA mRNA levels compared to vehicle” value stood at 5.9 folds. In addition, the “inhibition of Pol I transcription from the pre-rRNA promoter” value in the data set with Pol I is “about 40%”.
